One assay deals with T1, 5-HT2C receptor (Homo sapiens, UniProt P28335).
T1 construct: expressed in transfected cells; host or cells: HEK-293 cells
T1 sequence (P28335 33-458): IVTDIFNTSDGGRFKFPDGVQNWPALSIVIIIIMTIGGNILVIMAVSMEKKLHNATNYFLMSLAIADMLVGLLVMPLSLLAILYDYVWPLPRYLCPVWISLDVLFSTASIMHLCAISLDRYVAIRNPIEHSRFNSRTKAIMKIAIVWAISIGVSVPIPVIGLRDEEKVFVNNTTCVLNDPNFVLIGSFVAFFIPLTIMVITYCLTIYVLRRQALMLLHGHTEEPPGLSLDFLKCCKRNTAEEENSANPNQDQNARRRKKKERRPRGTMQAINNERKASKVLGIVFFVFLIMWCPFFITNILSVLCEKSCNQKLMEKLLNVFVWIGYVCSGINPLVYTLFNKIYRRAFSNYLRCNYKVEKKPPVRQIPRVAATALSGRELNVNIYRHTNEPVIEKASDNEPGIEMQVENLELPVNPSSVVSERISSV
Put plainly: Radioligand binding assay, serotoninergic 5-HT2C receptors. Conditions: test compound 1×10^−6 M.

Assay [1] has as its system α1 adrenergic receptors (rat cerebral cortex). The assay can be described thus: Radioligand binding assay, adrenergic α1 receptors. Conditions: test compound 1×10^−6 M. The method in brief: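 Values derive from radioligand displacement, with non-specific binding defined by excess cold ligand and detection by scintillation. Hill-fit IC50s were converted to Ki via Cheng-Prusoff using Scatchard-derived Kd; percent inhibition of control specific binding also reported.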

The target of assay [2] is T2, serotonin transporter (SERT) (Homo sapiens, UniProt P31645).
T2 construct: expressed in transfected cells; host or cells: CHO cells
Put plainly: Radioligand binding assay, serotonin transporter (SERT). The note with it: binding assay, test compound 1×10^−6 M. Put shortly: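 Values are derived from competition curves fitted by the Hill equation to give IC50, then converted to Ki by Cheng-Prusoff with radioligand Kd from Scatchard analysis. Specific binding equals total minus non-specific (excess cold ligand), counted by scintillation, and is also expressed as percent inhibition of control.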

The target in a further assay is T3, receptors D4.4 (Homo sapiens, UniProt P21917).
T3 sequence (P21917 1-419): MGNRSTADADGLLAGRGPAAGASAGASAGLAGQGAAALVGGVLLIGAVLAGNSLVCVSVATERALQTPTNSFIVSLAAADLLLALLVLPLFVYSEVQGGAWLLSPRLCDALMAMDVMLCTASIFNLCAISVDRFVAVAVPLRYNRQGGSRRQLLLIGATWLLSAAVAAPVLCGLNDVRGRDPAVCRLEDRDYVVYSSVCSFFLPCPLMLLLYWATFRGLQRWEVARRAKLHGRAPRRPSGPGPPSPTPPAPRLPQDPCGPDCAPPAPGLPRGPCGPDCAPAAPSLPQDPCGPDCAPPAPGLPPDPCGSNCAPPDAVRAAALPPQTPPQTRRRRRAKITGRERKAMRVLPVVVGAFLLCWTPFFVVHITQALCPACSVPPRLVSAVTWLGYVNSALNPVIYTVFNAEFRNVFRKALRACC
Put plainly: Radioligand binding assay, dopaminergic D4 (D4.4) receptors. The note with it: test compound 1×10^−6 M. Put shortly:
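Scintillation read-out. Specific = total − nonspecific (excess cold ligand). Data as % of control specific binding / % inhibition; IC50 by Hill fit; Ki = IC50/(1+L/KD), KD from Scatchard plot.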

The target in assay [3] is dopaminergic receptors D2 (Homo sapiens, UniProt P14416). The assay can be described thus: Radioligand binding assay, dopaminergic D2 receptors. The note with it: for inhibition at 1 µM / D2 [%]: binding assay, test compound 1×10^−6 M; for Ki: read-out: Inhibition constants Ki for D2 receptors, D2. The method in brief:
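Values derive from competition curves: percent inhibition of control specific binding was fitted by Hill non-linear regression for IC50, and Ki calculated with Cheng–Prusoff from radioligand concentration and KD (Scatchard). Bound ligand was detected by scintillation counting.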

The target of a further assay is T4, M3 muscarinic receptors (Homo sapiens, UniProt P20309).
T4 construct: expressed in transfected cells; host or cells: CHO cells
The assay can be described thus: Radioligand binding assay, muscarinic M3 receptors. Conditions: test compound 1×10^−6 M. The method in brief:
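Radioligand competition binding, detected by scintillation counting; non-specific binding defined with excess unlabelled ligand. Results given as % inhibition of control specific binding; IC50 from Hill-equation fit of competition curves, Ki via Cheng-Prusoff with radioligand KD from Scatchard plot.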

The target of another assay is T5, 5-HT6 receptor (Homo sapiens, UniProt P50406).
T5 construct: purchased PerkinElmer
The assay can be described thus: Radioligand binding assay, serotoninergic 5-HT6 receptors. The note with it: for inhibition at 1 µM / 5-HT6 [%]: binding assay result in %, Table 5a; for Ki: read-out: Inhibition constants Ki, 5-HT6. The method in brief:
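Values are Ki from Cheng–Prusoff, taking IC50 from Hill nonlinear regression of competition curves and KD from a Scatchard plot. Specific binding was total minus binding with excess unlabelled ligand. Radioligand displacement was detected by scintillation counting, and data were also reported as percent of control specific binding.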

Each structure is given as a SMILES string.

The record followed here is US20140135310A1, “SULPHONAMIDE DERIVATIVES OF ALICYCLIC AMINES FOR THE TREATMENT OF CENTRAL NERVOUS SYSTEM DISEASES” (Adamed Sp. z o.o., priority 2011, published 2014).

T2 sequence (P31645 whole entry): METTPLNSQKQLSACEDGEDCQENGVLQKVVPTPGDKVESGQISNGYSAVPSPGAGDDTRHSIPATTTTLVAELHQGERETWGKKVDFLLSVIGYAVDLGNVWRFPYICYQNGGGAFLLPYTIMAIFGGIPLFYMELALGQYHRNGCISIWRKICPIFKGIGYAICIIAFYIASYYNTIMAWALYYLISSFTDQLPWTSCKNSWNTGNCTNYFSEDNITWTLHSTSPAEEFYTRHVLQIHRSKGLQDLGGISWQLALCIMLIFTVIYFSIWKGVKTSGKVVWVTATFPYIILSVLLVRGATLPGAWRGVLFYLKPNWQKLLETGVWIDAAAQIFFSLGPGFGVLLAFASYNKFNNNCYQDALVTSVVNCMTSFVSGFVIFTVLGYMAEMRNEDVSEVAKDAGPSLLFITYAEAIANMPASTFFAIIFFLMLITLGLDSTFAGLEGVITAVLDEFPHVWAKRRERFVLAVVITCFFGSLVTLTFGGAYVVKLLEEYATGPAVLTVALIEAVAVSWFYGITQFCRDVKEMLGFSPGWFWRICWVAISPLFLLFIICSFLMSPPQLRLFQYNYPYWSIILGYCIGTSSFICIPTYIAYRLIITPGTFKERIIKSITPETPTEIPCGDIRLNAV
T5 sequence (P50406 whole entry): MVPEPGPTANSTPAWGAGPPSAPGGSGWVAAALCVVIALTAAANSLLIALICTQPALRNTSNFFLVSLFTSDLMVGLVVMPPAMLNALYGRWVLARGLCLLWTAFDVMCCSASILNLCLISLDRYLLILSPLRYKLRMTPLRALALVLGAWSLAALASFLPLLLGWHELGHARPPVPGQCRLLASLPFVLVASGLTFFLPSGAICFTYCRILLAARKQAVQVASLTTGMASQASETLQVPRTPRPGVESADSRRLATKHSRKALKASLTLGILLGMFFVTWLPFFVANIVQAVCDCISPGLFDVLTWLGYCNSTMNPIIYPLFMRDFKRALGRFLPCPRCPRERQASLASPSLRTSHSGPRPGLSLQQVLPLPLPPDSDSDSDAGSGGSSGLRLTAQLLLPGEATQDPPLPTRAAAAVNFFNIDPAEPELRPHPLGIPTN
Sequence of dopaminergic receptors D2 (P14416 whole entry): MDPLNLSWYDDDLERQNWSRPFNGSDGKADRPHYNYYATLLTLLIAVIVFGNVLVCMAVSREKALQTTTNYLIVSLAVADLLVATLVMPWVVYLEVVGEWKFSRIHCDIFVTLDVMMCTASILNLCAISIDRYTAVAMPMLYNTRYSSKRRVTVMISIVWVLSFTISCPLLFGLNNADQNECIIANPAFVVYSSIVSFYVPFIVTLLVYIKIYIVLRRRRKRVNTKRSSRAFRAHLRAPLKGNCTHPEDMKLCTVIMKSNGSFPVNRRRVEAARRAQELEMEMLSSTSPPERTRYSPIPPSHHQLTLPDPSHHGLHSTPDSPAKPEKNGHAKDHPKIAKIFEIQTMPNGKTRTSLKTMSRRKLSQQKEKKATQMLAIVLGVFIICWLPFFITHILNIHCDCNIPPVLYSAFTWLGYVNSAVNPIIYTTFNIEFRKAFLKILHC
T4 sequence (P20309 whole entry): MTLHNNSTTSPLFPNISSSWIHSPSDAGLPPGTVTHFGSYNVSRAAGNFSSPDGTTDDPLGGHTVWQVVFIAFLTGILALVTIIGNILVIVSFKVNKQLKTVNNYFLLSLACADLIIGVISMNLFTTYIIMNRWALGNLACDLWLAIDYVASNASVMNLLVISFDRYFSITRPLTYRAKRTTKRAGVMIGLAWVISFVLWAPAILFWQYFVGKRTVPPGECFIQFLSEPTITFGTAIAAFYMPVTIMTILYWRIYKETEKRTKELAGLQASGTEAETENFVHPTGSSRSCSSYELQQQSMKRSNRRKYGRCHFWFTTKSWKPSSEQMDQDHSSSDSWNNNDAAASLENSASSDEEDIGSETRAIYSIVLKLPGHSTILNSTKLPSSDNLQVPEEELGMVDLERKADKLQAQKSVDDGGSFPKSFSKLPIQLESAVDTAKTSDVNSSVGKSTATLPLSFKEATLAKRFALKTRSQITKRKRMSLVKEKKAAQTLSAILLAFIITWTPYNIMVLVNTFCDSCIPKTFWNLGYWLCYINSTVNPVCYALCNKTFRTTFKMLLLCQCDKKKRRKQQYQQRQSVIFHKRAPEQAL

As usually defined, the inhibition is the relative decrease from the control value, in per cent. `O=S(=O)(NCC1CCN(CCCc2noc3cc(F)ccc23)C1)c1ccc(-c2ccccc2)cc1` (stereo not shown) [Compound 241, N-[[1-[3-(6-Fluoro-1,2-benzoxazol-3-yl)propyl]pyrrolidin-3-yl]methyl]-4-phenyl-benzenesulphonamide]: the inhibition at 1 µM was 66% at 5-HT2C receptor; 71% in assay [2]; 33% at receptors D4.4; 81% in assay [3]; 19% on M3 muscarinic receptors; 68% on 5-HT6 receptor. In assay [1], the “α1 [%]” value is 62%.

Turning to `O=S(=O)(NC1CCN(CCCc2noc3cc(F)ccc23)C1)c1cc2ccc(F)cc2s1` (stereo not shown) [Compound 234, 6-Fluoro-N-[1-[3-(6-fluoro-1,2-benzoxazol-3-yl)propyl]pyrrolidin-3-yl]benzothiophene-2-sulphonamide], the inhibition at 1 µM was 86% at 5-HT2C receptor; 65% in assay [2]; 70% at receptors D4.4; 99% in assay [3]; 17% on M3 muscarinic receptors; 98% at 5-HT6 receptor. The “α1 [%]” value in assay [1] turned out to be 92%.

In general, Ki refers to a measure of affinity in units of concentration, obtained from inhibition or displacement. For the compound `O=S(=O)(N[C@@H]1CCN(CCCc2noc3cc(F)ccc23)C1)c1cc2ccccc2s1` [Compound 196, N-[(3R)-1-[3-(6-Fluoro-1,2-benzoxazol-3-yl)propyl]pyrrolidin-3-yl]benzo-thiophene-2-sulphonamide], the inhibition at 1 µM on 5-HT2C receptor is 86%; in assay [2], 42%; at receptors D4.4 it was 78%; in assay [3] it was 100%; at M3 muscarinic receptors it was 11%; at 5-HT6 receptor, 99%. For the same compound, in assay [1], the “α1 [%]” value was 95%. Further, the Ki in assay [3] stood at 0.8 nM; on 5-HT6 receptor, 6.4 nM.

`O=S(=O)(NC1CCN(CCCc2noc3cc(F)ccc23)CC1)c1cccc2ccccc12` [Compound 34, N-[1-[3-(6-Fluoro-1,2-benzoxazol-3-yl)propyl]-4-piperidine]-naphthalene-1-sulphonamide]: the inhibition at 1 µM on 5-HT2C receptor stood at 94%; in assay [2] it was 43%; at receptors D4.4, 37%; in assay [3], 76%; at M3 muscarinic receptors it was 12%; at 5-HT6 receptor, 40%. In assay [1], the “α1 [%]” value was 91%.

On to `O=S(=O)(NCC1CCN(CCCc2noc3cc(F)ccc23)C1)c1cccc2ccccc12` (stereo not shown) [Compound 239, N-[[1-[3-(6-Fluoro-1,2-benzoxazol-3-yl)propyl]pyrrolidin-3-yl]methyl]naphthalene-1-sulphonamide], for which the inhibition at 1 µM came to 49% on 5-HT2C receptor; 36% in assay [2]; 78% at receptors D4.4; 96% in assay [3]; 23% on M3 muscarinic receptors; 97% on 5-HT6 receptor. In addition, the “α1 [%]” value in assay [1] is recorded as 91%.

Turning to `O=S(=O)(NCC1CCN(CCOc2cccc3c2OCCO3)C1)c1cccc(F)c1` (stereo not shown) [Compound 298, N-[[1-[2-(2,3-Dihydro-1,4-benzodioxin-5-yloxy)ethyl]pyrrolidin-3-yl]-methyl]-3-fluoro-benzenesulphonamide], the inhibition at 1 µM at 5-HT2C receptor is 37%; in assay [2], 72%; at receptors D4.4, 48%; in assay [3], 52%; on M3 muscarinic receptors, 22%; at 5-HT6 receptor, 40%. Besides, in assay [1], the “α1 [%]” value amounted to 77%.

On to `O=S(=O)(N[C@H]1CCN(CCCc2noc3cc(F)ccc23)C1)c1cc2ccccc2s1` [Compound 197, N-[(3S)-1-[3-(6-Fluoro-1,2-benzoxazol-3-yl)propyl]pyrrolidin-3-yl]benzo-thiophene-2-sulphonamide], for which the inhibition at 1 µM at 5-HT2C receptor was found to be 84%; in assay [2] it was 58%; on receptors D4.4, 81%; in assay [3] it was 101%; on M3 muscarinic receptors, 26%; on 5-HT6 receptor, 97%. For the same compound, the “α1 [%]” value in assay [1] is 93%. In addition, the inhibition constant (Ki) in assay [3] is 5.8 nM; on 5-HT6 receptor it was 16 nM.

Regarding `O=S(=O)(NCC1CCN(CCCc2noc3cc(F)ccc23)C1)c1ccc2cc(Cl)ccc2c1` (stereo not shown) [Compound 237, 6-Chloro-N-[[1-[3-(6-fluoro-1,2-benzoxazol-3-yl)propyl]pyrrolidin-3-yl]methyl]naphthalene-2-sulphonamide], the inhibition at 1 µM came to 79% at 5-HT2C receptor; 61% in assay [2]; 48% on receptors D4.4; 97% in assay [3]; 16% at M3 muscarinic receptors; 87% at 5-HT6 receptor. In addition, the “α1 [%]” value in assay [1] worked out at 88%.

On to `Cc1cccc(S(=O)(=O)NC2CN(CCOc3cccc4c3OCCO4)C2)c1` [Compound 93, N-[1-[2-(2,3-Dihydro-1,4-benzodioxan-8-yloxy)ethyl]azetidin-3-yl]-3-methyl-benzenesulphonamide], for which the “5-HT2C [%]” value at 5-HT2C receptor came to 50%. Moreover, in assay [1], the “α1 [%]” value was determined as 52%. Besides, the “SERT [%]” value in assay [2] is given as 23%. For the same compound, the “D4.4 [%]” value at receptors D4.4 was 39%. The “D2 [%]” value in assay [3] turned out to be 78%. The “M3 [%]” value at M3 muscarinic receptors came to 1%. Also, the “5-HT6 [%]” value on 5-HT6 receptor stood at 29%.

`O=S(=O)(NC1CN(CCOc2cccc3[nH]ccc23)C1)c1cccc2ccccc12` [Compound 49, N-[1-[2-(1H-Indol-4-yloxy)ethyl]azetidin-3-yl]naphthalene-1-sulphonamide]: the inhibition at 1 µM at 5-HT2C receptor worked out at 59%; in assay [2], 41%; on receptors D4.4 it was 82%; in assay [3], 99%; on M3 muscarinic receptors, 11%; on 5-HT6 receptor, 34%. Besides, the “α1 [%]” value in assay [1] is reported as 89%.

For the compound `O=S(=O)(N[C@H]1CCN(CCCc2noc3cc(F)ccc23)C1)c1cc2ccccc2o1` [Compound 215, N-[(3S)-1-[3-(6-Fluoro-1,2-benzoxazol-3-yl)propyl]pyrrolidin-3-yl]benzo-furan-2-sulphonamide], the inhibition at 1 µM at 5-HT2C receptor is 74%; in assay [2] it was 35%; on receptors D4.4, 88%; in assay [3], 97%; on M3 muscarinic receptors, 39%; at 5-HT6 receptor, 93%. Besides, the “α1 [%]” value in assay [1] stood at 89%. The figures for the inhibition constant (Ki) (in assay [3]; on 5-HT6 receptor) were 3 nM and 21 nM, respectively.

In the case of `O=S(=O)(NC1CN(CCOc2cccc3c2OCCO3)C1)c1cccc(F)c1` [Compound 89, N-[1-[2-(2,3-Dihydro-1,4-benzodioxan-8-yloxy)ethyl]azetidin-3-yl]-3-fluoro-benzenesulphonamide], the “5-HT2C [%]” value at 5-HT2C receptor stood at 53%. In assay [1], the “α1 [%]” value was 45%. Further, the “SERT [%]” value in assay [2] is 3%. Also, the “D4.4 [%]” value on receptors D4.4 was 22%. The “D2 [%]” value in assay [3] is listed as 24%. For the same compound, the “M3 [%]” value at M3 muscarinic receptors was −6%. The “5-HT6 [%]” value on 5-HT6 receptor stood at 19%.

Take `Cc1cc(S(=O)(=O)N[C@H]2CCN(CCCc3noc4cc(F)ccc34)C2)c(C)s1` [Compound 223, N-[(3S)-1-[3-(6-Fluoro-1,2-benzoxazol-3-yl)propyl]pyrrolidin-3-yl]-2,5-dimethyl-thiophene-3-sulphonamide]: the inhibition at 1 µM on 5-HT2C receptor was determined as 65%; in assay [2] it was 17%; at receptors D4.4, 92%; in assay [3], 89%; on M3 muscarinic receptors it was 25%; on 5-HT6 receptor, 94%. Moreover, the “α1 [%]” value in assay [1] is on record as 86%.
